From EP1144412B1, “IMMUNOSUPPRESSIVE EFFECTS OF PTERIDINE DERIVATIVES” (4 AZA Bioscience nv, priority 1998, dated 2000)
Read-outs that look alike come from different tables or passages of the source.

How the values were obtained:
[1] = system: Peripheral blood mononuclear cells (PBMC); test: Mixed lymphocyte reaction (MLR), [3H]-thymidine incorporation; format: cell-based; details: Homo sapiens
Description: (§1) Various models may be used for testing an immunosuppressive effect. In vivo, for example, different transplantation models are available. They are strongly influenced by different immunogenicities, depending on the donor and recipient species used and depending on the nature of the transplanted organ. The survival time of transplanted organs can thus be used to measure the suppression of the immune response. In vitro, there exist also various models. The most used are lymphocyte activation tests. Usually activation is measured via lymphocyte proliferation. Inhibition of proliferation thus always means immunosuppression under the experimental conditions applied. There exist different stimuli for lymphocyte activation: • coculture of lymphocytes of […] (MLR = mixed lymphocyte reaction): lymphocytes expressing different minor and major antigens of the HLA-DR type (= alloantigens) activate each other non-specifically. • CD3 assay: here there is an activation of the T-lymphocytes via an exogenously added antibody (OKT3). This antibody reacts against the CD3 molecule located on the lymphocyte membrane. This molecule has a costimulatory function. […] This molecule is also located on the lymphocyte membrane, and delivers strong costimulatory signals.
Peripheral blood mononuclear cells (PBMC) were isolated from heparinized peripheral blood by density gradient centrifugation over Lymphoprep (Nycomed, Maorstua, Norway). Allogeneic PBMC or EBV-transformed human B cells [RPMI1788 (ATCC name CCL156)] which strongly express B7-1 and B7-2 were used as stimulator cells after irradiation with 30 Gy. MLR was performed in triplicate wells. After 5 days incubation at 37EC, 1 µCi [^3H]-thymidine was added to each cup. After a further 16 hours incubation, cells were harvested and counted in a β-counter.
The percent suppression of proliferation by drugs was counted using the formula Percent inhibition =((cpm + drugs) - cpm Cult. Med)/((cpm - drugs) - cpm Cult. Med.)x 100 [formula]

Highly purified T cells [2] = test: T cell proliferation induced by anti-CD3 mAb + PMA (BrdU incorporation); format: cell-based, Human; details: for IC50: Homo sapiens, T-cell
Description: as §1
(§2) T cells were purified by removing non-T cells. Briefly,monocytes were removed by cold agglutination. The resulting lymphoid cells were further purified by a cell enrichment immunocolumn [Cellect Human T (Biotex, Edmonton, Alberta, Canada)] by a process of negative selection.
(§3) Measurements of T cell proliferations induced by anti-CD3 mAb + PMA or anti-CD28 mAb + PMA
(§4) Highly purified T cells (10^6/ml) were stimulated by immobilized anti-CD3 àr anti-CD28 mAb in the presence of PMA. Anti-CD3 mAb (CLB-CD3; CLB, Amsterdam, The Netherlands) were fixed on the 96-microwell plates by incubating the wells with 50 µl of mAb solution (1/800 dilution in culture medium). Anti-CD28 mAb (CLB-CD28; CLB, Amsterdam, The Netherlands) 50 µl (1/650 dilution in culture medium) was added directly to the wells. Further, 20 µl PMA (Sigma, St. Louis, MO, USA) solution (final concentration: 0.5 ng/ml) was added. Subsequently, 20 µl of immunosuppressants were added by serial dilution in triplicate wells. Finally 100 µl of the T cell suspension (10^6/ml) was added. After 48-hour incubation at 37EC in 5% CO2 20 Φl BrdU (100 ΦM solution) (Cell Proliferation Elisa, Boehringer-Mannheim Belgium) was added to each well. After a further overnight incubation the T cell proliferation was measured using a colorimetric immunoassay for qualification of cell proliferation based on measurements of the incorporation of BrdU during DNAsynthesis. The optical density (OD) was measured by a Behring EL311 plate reader at 450 nm (reference wavelength: 690 nm). The percent suppression of proliferation by drugs was counted using the formula: Per cent inhibition =((OD + drugs) - (OD Cult. Med.))/((OD - drugs) - (OD Cult. Med.))x 100 [formula]

Highly purified T cells [3] = test: T cell proliferation induced by anti-CD28 mAb + PMA (BrdU incorporation); format: cell-based, Human; details: for IC50: Homo sapiens, T-cell
Description: as §1, §2, §3, §4

[4] = Table II, read-out: IC50 in µM of pteridine derivative MLR
[5] = untitled structure table, no unit printed there, same values in Table II as IC50 in µM, read-out: MLR
[6] = Table II, read-out: IC50 in µM of pteridine derivative ACD3
[7] = untitled structure table, no unit printed there, same values in Table II as IC50 in µM, read-out: aCD3
[8] = Table II, read-out: IC50 in µM of pteridine derivative aCD28
[9] = untitled structure table, no unit printed there, same values in Table II as IC50 in µM, read-out: aCD28
[10] = untitled structure table, IC50 subranges, read-out: MLR
[11] = untitled structure table, IC50 subranges, read-out: aCD3
[12] = untitled structure table, IC50 subranges, read-out: aCD28
[13] = Table III, comparison immunosuppressants, read-out: IC50 MLR
[14] = Table III, comparison immunosuppressants, read-out: IC50 aCD3
[15] = Table III, comparison immunosuppressants, read-out: IC50 aCD28

Question: `Nc1nc(N2CCNCC2)c2nc(-c3ccc(Cl)cc3)cnc2n1` [Compound 47, 2-amino-4-piperazino-6-(4-chlorophenyl)pteridine] was tested. Which IC50 [1, 4] did it give?
Answer: Its IC50 is 2 µM.

Question: And the IC50 [1, 5]?
Answer: The IC50 was 2 µM.

Question: What about the IC50 (Highly purified T cells [2]; [6]) of the same compound?
Answer: The IC50 was 20 µM.

Question: And the IC50 (Highly purified T cells [2]; [7])?
Answer: The IC50 was 20 µM.

Question: What about the IC50 (Highly purified T cells [3]; [8]) of the same compound?
Answer: Its IC50 is 15 µM.

Question: And the IC50 (Highly purified T cells [3]; [9])?
Answer: Its IC50 is 15 µM.

Question: What does the source list for `COc1ccc(-c2cnc3nc(N)nc(N4CCNCC4)c3n2)cc1` [Compound 48, 2-amino-4-piperazino-6-(4-methoxyphenyl)pteridine]?
Answer: IC50 [1, 4]: 10.5 µM; IC50 [1, 5]: 10.5 µM; IC50 (Highly purified T cells [2]; [6]): 14 µM; IC50 (Highly purified T cells [2]; [7]): 14 µM; IC50 (Highly purified T cells [3]; [8]): 4.5 µM; IC50 (Highly purified T cells [3]; [9]): 4.5 µM

Question: Which IC50 [1, 4] does the source give for `COc1ccc(-c2cnc3nc(N)nc(N4CCNCC4)c3n2)cc1OC` [Compound 49, 2-amino-4-piperazino-6-(3,4-dimethoxyphenyl)pteridine] here?
Answer: The IC50 was 2.8 µM.

Question: And the IC50 [1, 5]?
Answer: The IC50 was 2.8 µM.

Question: And the IC50 (Highly purified T cells [2]; [6])?
Answer: Its IC50 is 14.8 µM.

Question: What about the IC50 (Highly purified T cells [2]; [7]) of the same compound?
Answer: Its IC50 is 14.8 µM.

Question: And the IC50 (Highly purified T cells [3]; [8])?
Answer: The IC50 was 4.5 µM.

Question: What about the IC50 (Highly purified T cells [3]; [9]) of the same compound?
Answer: Its IC50 is 4.5 µM.

Question: Which IC50 [1, 10] does the source give for `COc1cc(-c2cnc3nc(N)nc(N(Cc4ccccc4)Cc4ccccc4)c3n2)cc(OC)c1OC` [Compound 50, 2-amino-4-dibenzylamino-6-(3,4,5-trimethoxyphenyl)pteridine] here?
Answer: Its IC50 is 1 to 15 µM.

Question: And the IC50 (Highly purified T cells [2]; [11])?
Answer: Its IC50 is 1 to 15 µM.

Question: What about the IC50 (Highly purified T cells [3]; [12]) of the same compound?
Answer: Its IC50 is 1 to 15 µM.

Question: With `Nc1nc(N2CCOCC2)c2nc(-c3ccc4c(c3)OCO4)cnc2n1` [Compound 56, 2-amino-4-morpholino-6-(3,4-formylidene-3,4-dihydroxyphenyl)pteridine] as the compound, how does the IC50 [1, 10] read?
Answer: Its IC50 is 1 to 15 µM.

Question: What about the IC50 (Highly purified T cells [2]; [11]) of the same compound?
Answer: The IC50 was 16 to 150 µM.

Question: What about the IC50 (Highly purified T cells [3]; [12]) of the same compound?
Answer: The IC50 was 16 to 150 µM.

Question: What does the source list for `CN(C)c1nc(N)nc2ncc(-c3ccc4c(c3)OCO4)nc12` [Compound 57, 2-amino-4-dimethylamino-6-(3,4-formylidene-3,4-dihydroxyphenyl)pteridine]?
Answer: IC50 [1, 10]: > 151 µM; IC50 (Highly purified T cells [2]; [11]): 16 to 150 µM; IC50 (Highly purified T cells [3]; [12]): 16 to 150 µM

Question: What does the source list for `COc1ccc(-c2cnc3nc(N)nc(N(C)C)c3n2)cc1OC` [Compound 59, 2-amino-4-dimethylamino-6-(3,4-dimethoxyphenyl)pteridine]?
Answer: IC50 [1, 10]: < 1 µM; IC50 (Highly purified T cells [2]; [11]): 1 to 15 µM; IC50 (Highly purified T cells [3]; [12]): 1 to 15 µM

Question: How did the IC50 [1, 10] turn out when `Cc1cnc2nc(N)nc(N(C)C)c2n1` [Compound 60, 2-amino-4-dimethylamino-6-methylpteridine] was run?
Answer: Its IC50 is 16 to 150 µM.

Question: And the IC50 (Highly purified T cells [2]; [11])?
Answer: Its IC50 is 16 to 150 µM.

Question: And the IC50 (Highly purified T cells [3]; [12])?
Answer: The IC50 was 16 to 150 µM.

Question: For `CCOc1nc(N)nc2ncc(-c3ccccc3)nc12` [Compound 61, 2-amino-4-ethoxy-6-phenylpteridine], which IC50 [1, 10] is on record?
Answer: The IC50 was 1 to 15 µM.

Question: And the IC50 (Highly purified T cells [2]; [11])?
Answer: The IC50 was 1 to 15 µM.

Question: What about the IC50 (Highly purified T cells [3]; [12]) of the same compound?
Answer: The IC50 was 1 to 15 µM.

Question: What does the source list for `CCCNc1nc(N)nc2ncc(-c3ccccc3)nc12` [Compound 62, 2-amino-4-propylamino-6-phenylpteridine]?
Answer: IC50 [1, 10]: 1 to 15 µM; IC50 (Highly purified T cells [2]; [11]): 16 to 150 µM; IC50 (Highly purified T cells [3]; [12]): 16 to 150 µM

Question: With `COc1ccc(-c2cnc3nc(NC(C)=O)nc(O)c3n2)cc1OC` [Compound 64, 2-acetamido-4-hydroxy-6-(3,4-dimethoxyphenyl)pteridine] as the compound, how does the IC50 [1, 10] read?
Answer: The IC50 was 16 to 150 µM.

Question: And the IC50 (Highly purified T cells [2]; [11])?
Answer: Its IC50 is > 151 µM.

Question: And the IC50 (Highly purified T cells [3]; [12])?
Answer: The IC50 was 16 to 150 µM.

Question: For `COc1ccc(-c2cnc3nc(NC(C)=O)nc(OC(C)C)c3n2)cc1OC` [Compound 65, 2-acetamido-4-i-propoxy-6-(3,4-dimethoxyphenyl)pteridine], which IC50 [1, 10] is on record?
Answer: The IC50 was 1 to 15 µM.

Question: And the IC50 (Highly purified T cells [2]; [11])?
Answer: Its IC50 is 16 to 150 µM.

Question: And the IC50 (Highly purified T cells [3]; [12])?
Answer: The IC50 was 16 to 150 µM.

Question: For `C=CC[C@@H]1/C=C(\C)C[C@H](C)C[C@H](OC)[C@H]2O[C@@](O)(C(=O)C(=O)N3CCCC[C@H]3C(=O)O[C@H](/C(C)=C/[C@@H]3CC[C@@H](O)[C@H](OC)C3)[C@H](C)[C@@H](O)CC1=O)[C@H](C)C[C@@H]2OC` [FK506, tacrolimus, reference compound], which IC50 [1, 13] is on record?
Answer: Its IC50 is 0.001 µM.

Question: What about the “activity in the anti-CD3 + PMA test” value (Highly purified T cells [2]) of the same compound?
Answer: Its value is “only active”.

Question: And the IC50 (Highly purified T cells [2]; [14])?
Answer: The IC50 was 0.001 µM.

Question: What about the “activity in the anti-CD28 + PMA test” value (Highly purified T cells [3]) of the same compound?
Answer: The value was “not suppressive”.

Question: How did the IC50 [1, 13] turn out when `Cc1oncc1C(=O)Nc1ccc(C(F)(F)F)cc1` [Leflunomide, reference compound] was run?
Answer: The IC50 was 25 µM.

Question: What about the IC50 (Highly purified T cells [2]; [14]) of the same compound?
Answer: Its IC50 is 15 µM.

Question: And the IC50 (Highly purified T cells [3]; [15])?
Answer: Its IC50 is 20 µM.

Question: `CN(Cc1cnc2nc(N)nc(N)c2n1)c1ccc(C(=O)N[C@@H](CCC(=O)O)C(=O)O)cc1` [MTX, methatroxate, reference compound] was tested. Which IC50 [1, 13] did it give?
Answer: The IC50 was 10 µM.

Question: And the IC50 (Highly purified T cells [2]; [14])?
Answer: The IC50 was > 200 µM.

Question: What about the IC50 (Highly purified T cells [3]; [15]) of the same compound?
Answer: The IC50 was > 200 µM.

Question: How did the IC50 [1, 13] turn out when `CO[C@H]1C[C@@H]2CC[C@@H](C)[C@@](O)(O2)C(=O)C(=O)N2CCCC[C@H]2C(=O)O[C@H]([C@H](C)C[C@@H]2CC[C@@H](O)[C@H](OC)C2)CC(=O)[C@H](C)/C=C(\C)[C@@H](O)[C@@H](OC)C(=O)[C@H](C)C[C@H](C)/C=C/C=C/C=C/1C` [Rapamycin, reference compound] was run?
Answer: The IC50 was 0.001 µM.

Question: And the IC50 (Highly purified T cells [2]; [14])?
Answer: Its IC50 is 0.001 µM.

Question: And the IC50 (Highly purified T cells [3]; [15])?
Answer: Its IC50 is 0.001 µM.
